Like-named read-outs stand apart in the source and are kept apart here.
How the values were obtained:
tankyrase 2 (TNKS2) = biological target: T1, tankyrase 2 (TNKS2) (Homo sapiens, UniProt Q9H2K2); assay: μHTS-TNKS-IWR2 TR-FRET Binding Assay (Example 118), His6-TNKS2 substituted; conditions: procedure in Example 118 with His6-TNKS2
T1 construct: His6-tankyrase 2 (construct: 934-1166) (His6-TNKS2)
Experimental: (§1) μHTS-TNKS-IWR2 TR-FRET Binding Assay (10 μL/well in BD1536-well plate, a single point)
(§2) Reagents and Stock Solutions
Tankyrase 1 (TNKS1): 184.3 μM=5.2 mg/mL His6-TNKS1, MW=28.2 KDa (construct: 1088-1327, 1266M) in 20 mM Tris pH 8, 150 mM NaCl, 10% glycerol, and 0.5 mM TCEP. Alternatively, His6-tankyrase 2 (construct: 934-1166) (His6-TNKS2) or His6-PARP1 (full length) can be substituted for His6-TNKS 1.
(§3) Biotin-4-((1S,2R,6S,7R)-3,5-Dioxo-4-aza-tricyclo[5.2.1.0*2,6]dec-8-en-4-yl)-N-(4-methyl-quinolin-8-yl)-benzamide (Biotin-IWR2): 10 mM Biotin-IWR2 stock in DMSO, stored at −20° C.
Positive control: 10 mM 2-(4-Trifluoromethyl-phenyl)-3,5,7,8-tetrahydro-thiopyrano[4,3-d]pyrimidin-4-one (XAV939) in DMSO, stored at −20° C.
APC-anti-His Ab: 8.50 μM SL-APC, 8.26 μM anti-6His antibody-SureLight APC (Columia Bioscience, Catalog Number D3-1711, Lot Number N01010-AAH04)
Assay plate: BD 1536-well, clear/black plate (Catalog Number 353255)
(§4) Assay buffer 1a (AB1a) for TNKS dilution: 50 mM Tris, pH 7.4, 100 mM sodium chloride solution, 1 mM magnesium chloride solution, 1 mM DL-dithiothreitol solution, 0.2 mg/mL bovine serum albumin solution, 0.025% NP-40.
(§5) Assay buffer 1b (AB1b) for Biotin-IWR2 dilution: 50 mM Tris, pH 7.4, 100 mM sodium chloride solution, 1 mM magnesium chloride solution, 1 mM DL-dithiothreitol solution, 0.2 mg/mL bovine serum albumin solution, 0.05% NP-40
(§6) Assay buffer 1c (AB1c) for compound dilution: 50 mM Tris, pH 7.4, 100 mM sodium chloride solution, 1 mM magnesium chloride solution, 1 mM DL-dithiothreitol solution, 0.2 mg/mL bovine serum albumin solution
(§7) Assay buffer 2 (AB2) for Eu/APC: 50 mM Tris, pH 7.4, 100 mM sodium chloride solution, 1 mM magnesium chloride solution, 0.2 mg/mL bovine serum albumin solution
(§8) Reagent Stock Solution Preparation
Prepare Biotinylated IWR2 stock solution (3.33× stock) for TOTL and compound wells: 200 nM Biotin-IWR2 in 5% DMSO/AB1b buffer
(§9) Prepare BLANK well stock solution: 5% DMSO/AB1b buffer
Prepare POSITIVE CONTROL well stock solution (3.33× stock): 200 nM XAV939 in 200 nM Biotin-IWR2/5% DMSO/AB1b buffer
(§10) Prepare TNKS 1 stock solution (5× stock): 300 nM TNKS in AB1a buffer. (Alternatively, use TNKS2 or PARP1 stock solutions.)
Prepare Eu/APC stock solution (5× stock): 3.5 nM Eu-SA/50 nM APC-His6Ab in AB2 buffer.
Add 25 μL/well 1.5% DMSO/AB1c buffer in each compound well to the compound concentration at 74 μM in 8.8% DMSO/AB1c buffer or in the 2 μL DMSO CONTROL wells (BLANK, TOTAL and POSITIVE wells) in the compound plate. Transfer 3 μL/well of above solution (solution 1,2,3) to an empty assay plate (BD1536-well plate) as follows: • TOTAL and cpd wells: Solution 1 (Biotin-IWR2): • BLANK wells: Solution 2 (No Biotin-IWR2): • POSITIVE CONTROL wells: Solution 3 (Biotin-IWR2+XAV939)
(§11) Transfer 3 μL/well of the above diluted compound solutions or compound dilution buffer to the above assay plate. Add 2 μL/well of 300 nM TNKS stock solution (4) to every well in the above assay plate. Centrifuge the assay plate at 2100 rpm for 2 min. Incubate the assay plate at 26° C. for 30 minutes. Add 2 μL/well 3.5 nMEu/50 nM APC solution (5) to every well in the above assay plate. Centrifuge the assay plate at 2100 rpm for 2 min. Incubate the assay plate at 26° C. for 60 min. Read the assay plate immediately at excitation wavelength of 330 nm and emission wavelength of 615 and 665 nM in time resolved fluorescence mode.
XAV939 (+ve control): 60 nM at ˜70% Inhibition
General Library compounds: 22.23 μM in 4% DMSO

Tankyrase 1 (TNKS1) = biological target: T2, Tankyrase 1 (TNKS1) (Homo sapiens, UniProt O95271); assay: μHTS-TNKS-IWR2 TR-FRET Binding Assay (Example 118), His6-TNKS1
T2 construct: His6-TNKS1, MW=28.2 KDa (construct: 1088-1327, 1266M)
T2 sequence (O95271 1088-1327): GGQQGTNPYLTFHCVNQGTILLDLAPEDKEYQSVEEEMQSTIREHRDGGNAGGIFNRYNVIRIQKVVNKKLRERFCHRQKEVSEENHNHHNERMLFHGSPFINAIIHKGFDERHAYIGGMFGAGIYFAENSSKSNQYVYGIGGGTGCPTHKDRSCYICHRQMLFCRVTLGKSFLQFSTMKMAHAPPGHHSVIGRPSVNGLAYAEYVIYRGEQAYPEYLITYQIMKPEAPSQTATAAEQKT
Experimental: as §1, §2, §3
(XAV939) in DMSO, stored at −20° C.
as §4, §5, §6, §7, §8, §9, §10
Transfer 3 μL/well of above solution (solution 1,2,3) to an empty assay plate (BD1536-well plate) as follows: • TOTAL and cpd wells: Solution 1 (Biotin-IWR2): • BLANK wells: Solution 2 (No Biotin-IWR2): • POSITIVE CONTROL wells: Solution 3 (Biotin-IWR2+XAV939)
as §11, with “min.” for “min. Read the assay plate immediately at excitation wavelength of 330 nm and emission wavelength of 615 and 665 nM in time resolved fluorescence mode.”

T1 sequence (Q9H2K2 934-1166): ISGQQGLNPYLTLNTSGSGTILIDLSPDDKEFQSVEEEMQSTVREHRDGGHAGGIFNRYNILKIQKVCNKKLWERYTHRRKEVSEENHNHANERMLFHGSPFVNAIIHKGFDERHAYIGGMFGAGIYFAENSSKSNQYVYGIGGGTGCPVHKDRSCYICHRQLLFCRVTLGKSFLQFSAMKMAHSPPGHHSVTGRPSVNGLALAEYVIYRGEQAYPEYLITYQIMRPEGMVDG

Compound | IC50 (tankyrase 2 (TNKS2)) [µM] | IC50 (Tankyrase 1 (TNKS1)) [µM] | IC50 (Tankyrase 1 (TNKS1); Compounds I-1 to I-58, procedure in Example 118 (TR-FRET, Biotin-IWR2 60 nM, TNKS 60 nM), read-out: TNKS1 (IC50)) [µM]
Cn1ncc2c(=O)[nH]c(-c3ccc(C(F)(F)F)cc3)nc21 [Compound I-4, 1-methyl-6-[4-(trifluoromethyl)phenyl]-5H-pyrazolo[3 4-d]pyrimidin-4-one] | 0.0345 | 0.025 | 
6-[4-(4-fluorophenyl)-1- piperidyl]-1-methyl-5H- pyrazolo[4 3-c]pyridin-4- one [Compound I-8] | 0.0428 |  | 0.042
Cn1ncc2c(=O)[nH]c(N3CCN(c4ccc(F)cc4F)CC3)nc21 [Compound I-14, 6-[4-(2 4-difluorophenyl)piperazin-1-yl]-1-methyl-5H-pyrazolo[3 4-d]pyrimidin-4-one] | 0.0471 | 0.039 | 
Cn1ncc2c(=O)[nH]c(N3CCN(c4c(Cl)cccc4Cl)CC3)nc21 [Compound I-42, 6-[4-(2 6-dichlorophenyl)piperazin-1-yl]-1-methyl-5H-pyrazolo[3 4-d]pyrimidin-4-one] | 0.0263 | 0.024 | 
Cn1ncc2c(=O)[nH]c(N3CCC(c4ccc(F)cc4)CC3)nc21 [Compound I-5, 6-[4-(4-fluorophenyl)-1-piperidyl]-1-methyl-5H-pyrazolo[3 4-d]pyrimidin-4-one] | 0.0376 | 0.031 | 
Cn1ncc2c(=O)[nH]c(N3CCN(CC4CCCO4)CC3)nc21 (stereo not drawn) [Compound I-32, 1-methyl-6-[4-(tetrahydrofuran-2-ylmethyl)piperazin-1-yl]-5H-pyrazolo[3 4-d]pyrimidin-4-one] | 0.178 | 0.155 | 
Cn1ncc2c(=O)[nH]c(N3CCN(c4c(F)cccc4F)CC3)cc21 [Compound I-51, 6-[4-(2 6-difluorophenyl)piperazin-1-yl]-1-methyl-5H-pyrazolo[4 3-c]pyridin-4-one] | 0.0231 | 0.025 | 
Cn1ncc2c(=O)[nH]c(N3CCN(c4ccccc4F)CC3)nc21 [Compound I-3, 6-[4-(2-fluorophenyl)piperazin-1-yl]-1-methyl-5H-pyrazolo[3 4-d]pyrimidin-4-one] | 0.0344 | 0.027 | 
Cn1ncc2c(=O)[nH]c(N3CCN(c4ccc(F)c(C(F)(F)F)c4)CC3)nc21 [Compound I-39, 6-[4-(4-fluoro-3-(trifluoromethyl)phenyl]piperazin-1-yl]-1-methyl-5H-pyrazolo[3 4-d]pyrimidin-4-one] | 0.303 | 0.331 | 

The next lines start with results.

IC50 (tankyrase 2 (TNKS2)) [µM] | IC50 (Tankyrase 1 (TNKS1)) [µM] | Compound | IC50 (Tankyrase 1 (TNKS1); Compounds I-1 to I-58, procedure in Example 118 (TR-FRET, Biotin-IWR2 60 nM, TNKS 60 nM), read-out: TNKS1 (IC50)) [µM]
0.0217 | 0.032 | Cn1ncc2c(=O)[nH]c(N3CCC(C#N)(c4ccc(F)cc4)CC3)nc21 [Compound I-33, 4-(4-fluorophenyl)-1-(1-methyl-4-oxo-5H-pyrazolo[3 4-d]pyrimidin-6-yl)piperidine-4-carbonitrile] | 
0.0564 | 0.066 | Cn1ncc2c(=O)[nH]c(N3CCN(c4cc(O)cc(F)c4F)CC3)nc21 [Compound I-57, 6-[4-(2 3-difluoro-5-hydroxy-phenyl)piperazin-1-yl]-1-methyl-5H-pyrazolo[3 4-d]pyrimidin-4-one] | 
0.025 | 0.021 | Cn1ncc2c(=O)[nH]c(N3CCN(c4c(F)cc(N)cc4F)CC3)nc21 [Compound I-54, 6-[4-(4-amino-2 6-difluoro-phenyl)piperazin-1-yl]-1-methyl-5H-pyrazolo[3 4-d]pyrimidin-4-one] | 
0.664 | 0.374 | O=c1[nH]c(N2CCC(c3ccc(F)cc3)CC2)nc2[nH]ncc12 [Compound I-9, 6-[4-(4-fluorophenyl)-1-piperidyl]-1 5-dihydropyrazolo[3 4-d]pyrimidin-4-one] | 
0.0952 | 0.074 | Cn1ncc2c(=O)[nH]c(N3CCN(c4ccccc4C#N)CC3)nc21 [Compound I-15, 2-[4-(1-methyl-4-oxo-5H-pyrazolo[3 4-d]pyrimidin-6-yl)piperazin-1-yl]benzonitrile] | 
0.097 | 0.103 | Cn1ncc2c(=O)[nH]c(N3CCN(c4ccccc4C#N)CC3)cc21 [Compound I-17, 2-[4-(1-methyl-4-oxo-5H-pyrazolo[4 3-c]pyridin-6-yl)piperazin-1-yl]benzonitrile] | 
0.0632 | 0.055 | Cn1ncc2c(=O)[nH]c(N3CCN(c4c(F)cc(C#N)cc4F)CC3)nc21 [Compound I-56, 3 5-difluoro-4-[4-(1-methyl-4-oxo-5H-pyrazolo[3 4-d]pyrimidin-6-yl)piperazin-1-yl]benzonitrile] | 
0.0326 | 0.027 | Cn1ncc2c(=O)[nH]c(N3CCN(c4ccccc4C(F)(F)F)CC3)nc21 [Compound I-19, 1-methyl-6-[4-[2-(trifluoromethyl)phenyl]piperazin-1-yl]-5H-pyrazolo[3 4-d]pyrimidin-4-one] | 
0.0326 | 0.034 | Cn1ncc2c(=O)[nH]c(N3CCN(c4c(F)cc([N+](=O)[O-])cc4F)CC3)nc21 [Compound I-49, 6-[4-(2 6-difluoro-4-nitro-phenyl)piperazin-1-yl]-1-methyl-5H-pyrazolo[3 4-d]pyrimidin-4-one] | 
0.0815 | 0.055 | Cn1ncc2c(=O)[nH]c(N3CCN(c4ccc(S(C)(=O)=O)cc4F)CC3)nc21 [Compound I-21, 6-[4-(2-fluoro-4-methylsulfonyl-phenyl)piperazin-1-yl]-1-methyl-5H-pyrazolo[3 4-d]pyrimidin-4-one] | 
1.6 | 1.93 | Cn1ncc2c(=O)[nH]c(N3CCN(C4CCS(=O)(=O)C4)CC3)nc21 (stereo not drawn) [Compound I-36, 6-[4-(1 1-dioxothiolan-3-yl)piperazin-1-yl]-1-methyl-5H-pyrazolo[3 4-d]pyrimidin-4-one] | 
0.228 | 0.15 | Cn1ncc2c(=O)[nH]c(N3CCN(c4ncccc4C#N)CC3)nc21 [Compound I-18, 2-[4-(1-methyl-4-oxo-5H-pyrazolo[3 4-d]pyrimidin-6-yl)piperazin-1-yl]pyridine-3-carbonitrile] | 

— patent US20130345215A1, “PYRAZOLOPYRIMIDONE AND PYRAZOLOPYRIDONE INHIBITORS OF TANKYRASE” (Genentech, Inc., priority 2012, published 2013)
